Laboratory results: patent US7276523B2, “Aminopyridine derivatives as estrogen receptor modulators” (SmithKline Beecham Corporation, priority 2001, dated 2007)

Legend:
[1] = target: T1, GST-hERα (ligand binding domain) (Homo sapiens, UniProt P03372); assay: Competition binding assay (SPA, [3H]estradiol), ER alpha; settings: read-out: Avg. ER alpha Ki (n)
T1 construct: made in house; host or cells: E. coli BL21(DE3)pLysS
T1 sequence (P03372 311-547 limits assumed): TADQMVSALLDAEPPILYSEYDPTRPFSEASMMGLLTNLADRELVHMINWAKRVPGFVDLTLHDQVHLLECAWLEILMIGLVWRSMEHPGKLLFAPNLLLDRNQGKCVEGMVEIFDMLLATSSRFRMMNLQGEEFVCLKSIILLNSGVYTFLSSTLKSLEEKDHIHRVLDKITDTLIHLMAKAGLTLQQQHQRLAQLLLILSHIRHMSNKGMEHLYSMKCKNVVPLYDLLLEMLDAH
Method: The ligand binding domain of both ERα and ERβ were subcloned into pGEX-2T vector, which had been modified to contain KpnI and BamHI restriction, sites in the multiple cloning region. GST-hERα and GST-hERβ proteins were made by transforming BL21(DE3)pLYS S competent cells with the appropriate expression plasmid. […] The cells were collected by centrifugation and resuspended in lysis buffer (50 mM Tris pH 7.9; 250 mM KCl; 1% Triton X-100; 10 mM DTT; 1 mM PMSF). The lysate was then placed on dry ice until completely frozen. The frozen lysate was thawed and centrifuged 20 min at 4° C. at 80 K rpm in a TLA 100.2 rotor in a Beckman TL-100 ultracentrifuge. The supernatant was retained and glycerol was added to a final concentration of 10%. The protein content of the supernatant was quantitated using the BioRad Protein Assay Reagent. The protein was then stored at −80° C. until used in the binding assay.
Polylysine coated Yttrium Silicate SPA beads (Amersham #RPNQ 0010) was resuspended in assay buffer [10 mM potassium phosphate buffer pH 7.0 containing 2 mM EDTA, 50 mM NaCl, 1 mM DTT, 2 mM CHAPS, 10% glycerol] to a concentration of 1 g/60 ml. 30 ul (0.5 mg) of the SPA beads was then added to each well of a Packard OptiPlate (Packard 6005190, Packard Instruments, Meriden, Conn.). […] The plates were shaken vigorously for two hours then counted on a Packard TopCount using the protocol for counting tritium yttrium silicate SPA beads. Data analysis was done by standard methods. % Bound was calculated for each concentration of each test compound using the equation % Bound=100*((Test−NS)/(T−NS)). % Bound was plotted vs concentration and curve fitting was accomplished using non-linear regression.
Saturation binding assays were run similarly to competition assays.

[2] = target: T2, GST-hERβ (ligand binding domain) (Homo sapiens, UniProt Q92731); assay: Competition binding assay (SPA, [3H]estradiol), ER beta
T2 construct: made in house; host or cells: E. coli BL21(DE3)pLysS
T2 sequence (Q92731 264-498 limits assumed): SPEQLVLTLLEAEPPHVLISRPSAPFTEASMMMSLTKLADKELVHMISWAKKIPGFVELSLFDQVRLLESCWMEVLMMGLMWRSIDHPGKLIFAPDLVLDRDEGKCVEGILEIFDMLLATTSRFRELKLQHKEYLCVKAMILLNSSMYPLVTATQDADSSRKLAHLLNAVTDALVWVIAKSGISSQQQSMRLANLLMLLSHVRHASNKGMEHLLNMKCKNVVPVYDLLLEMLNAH
Method: The ligand binding domain of both ERα and ERβ were subcloned into pGEX-2T vector, which had been modified to contain KpnI and BamHI restriction, sites in the multiple cloning region. GST-hERα and GST-hERβ proteins were made by transforming BL21(DE3)pLYS S competent cells with the appropriate expression plasmid. Liquid cultures containing standard Luria-Bertani (LB) broth with 0.1 mg/ml ampicillin and 0.033 mg/ml chloramphenicol were grown at 37° C. to an OD600 of 0.5-1.0 then induced with IPTG for 2-3 hours. The cells were collected by centrifugation and resuspended in lysis buffer (50 mM Tris pH 7.9; 250 mM KCl; 1% Triton X-100; 10 mM DTT; 1 mM PMSF). The lysate was then placed on dry ice until completely frozen. The frozen lysate was thawed and centrifuged 20 min at 4° C. at 80 K rpm in a TLA 100.2 rotor in a Beckman TL-100 ultracentrifuge. The supernatant was retained and glycerol was added to a final concentration of 10%. The protein content of the supernatant was quantitated using the BioRad Protein Assay Reagent. The protein was then stored at −80° C. until used in the binding assay.
Polylysine coated Yttrium Silicate SPA beads (Amersham #RPNQ 0010) was resuspended in assay buffer [10 mM potassium phosphate buffer pH 7.0 containing 2 mM EDTA, 50 mM NaCl, 1 mM DTT, 2 mM CHAPS, 10% glycerol] to a concentration of 1 g/60 ml. 30 ul (0.5 mg) of the SPA beads was then added to each well of a Packard OptiPlate (Packard 6005190, Packard Instruments, Meriden, Conn.). […] [2, 4, 6, 7, 16, 17-3H(N)]-Estradiol was added as a 30 ul aliquot to give a final assay concentration of 1 nM. To give a final volume of 100 ul, either 10 ul of a test compound solution (typically in 10% DMSO as solvent), solvent containing no test compound (to determine total binding, T), or solvent containing 17-b-estradiol at 100 uM (to determine non-specific binding, NS) were finally added to the plate. The plates were shaken vigorously for two hours then counted on a Packard TopCount using the protocol for counting tritium yttrium silicate SPA beads. Data analysis was done by standard methods. % Bound was calculated for each concentration of each test compound using the equation % Bound=100*((Test−NS)/(T−NS)). % Bound was plotted vs concentration and curve fitting was accomplished using non-linear regression.
Saturation binding assays were run similarly to competition assays. […] [2, 4, 6, 7, 16, 17-3H(N)]-Estradiol was added such that the final concentration ranged from 0.1 to 100 nM.

| Compound | Ki [1] | Ki [2] |
| --- | --- | --- |
| Cc1cc(O)ccc1-c1cc(-c2ccccc2)cc(N(C)CCC(C)C)n1 [Example 21, 4-{6-[isopentyl(methyl)amino]-4-phenyl-2-pyridinyl}-3-methylphenol] | 210 nM | 660 nM |
| Cc1cc(O)ccc1-c1cc(-c2ccccc2)cc(N(C)CCc2ccccn2)n1 [Example 23, 3-methyl-4-(6-{methyl[2-(2-pyridinyl)ethyl]amino}-4-phenyl-2-pyridinyl)phenol] | 1260 nM | > 3000 nM |
| CCCN(Cc1ccccn1)c1cc(-c2ccccc2)cc(-c2ccc(O)cc2C)n1 [Example 26, 3-methyl-4-{4-phenyl-6-[propyl(2-pyridinylmethyl)amino]-2-pyridinyl}phenol] | 70 nM | 330 nM |
| Cc1cc(O)ccc1-c1cc(-c2ccccc2)cc(N2CCC(Cc3ccccc3)CC2)n1 [Example 29, 4-[6-(4-benzyl-1-piperidinyl)-4-phenyl-2-pyridinyl]-3-methylphenol] | 20 nM | 110 nM |
| CCOCCN(CCOCC)c1cc(-c2ccccc2)cc(-c2ccc(O)cc2C)n1 [Example 32, 4-{6-[bis(2-ethoxyethyl)amino]-4-phenyl-2-pyridinyl}-3-methylphenol] | 2000 nM | 1170 nM |

Next, values leading:

| Ki [1] | Ki [2] | Compound |
| --- | --- | --- |
| 160 nM | 680 nM | Cc1cc(O)ccc1-c1cc(-c2ccccc2)cc(N(C)CCc2ccccc2)n1 [Example 6, 3-methyl-4-{6-[methyl(2-phenylethyl)amino]-4-phenyl-2-pyridinyl}phenol] |
| 660 nM | 790 nM | CCCCN(C)c1cc(-c2ccccc2)cc(-c2cccc(O)c2)n1 [Example 12, 3-{6-[butyl(methyl)amino]-4-phenyl-2-pyridinyl}phenol] |
| 380 nM | 1120 nM | Cc1cc(O)ccc1-c1cc(-c2ccccc2)cc(N(C)Cc2ccccc2)n1 [Example 15, 4-{6-[benzyl(methyl)amino]-4-phenyl-2-pyridinyl}-3-methylphenol] |
| 450 nM | 1410 nM | Cc1cc(O)ccc1-c1cc(-c2ccccc2)cc(N(C)Cc2cccc3ccccc23)n1 [Example 18, 3-methyl-4-{6-[methyl(1-naphthylmethyl)amino]-4-phenyl-2-pyridinyl}phenol] |
| 620 nM | 1260 nM | CC(C)CCN(C)c1cc(-c2ccccc2)cc(-c2ccc(O)cc2)n1 [Example 20, 4-{6-[isopentyl(methyl)amino]-4-phenyl-2-pyridinyl}phenol] |
| 830 nM | 1000 nM | CCN(Cc1ccncc1)c1cc(-c2ccccc2)cc(-c2ccc(O)cc2C)n1 [Example 28, 4-{6-[ethyl(4-pyridinylmethyl)amino]-4-phenyl-2-pyridinyl}-3-methylphenol] |
| 130 nM | 250 nM | Cc1cc(O)ccc1-c1cc(-c2ccccc2)cc(N(CCc2ccccc2)Cc2ccccc2)n1 [Example 31, 4-{6-[benzyl(2-phenylethyl)amino]-4-phenyl-2-pyridinyl}-3-methylphenol] |
